Measured values from the supplement of paper PMC10307832.

How the values were obtained:
Assay in all cases: relative viability (nuclei count vs DMSO), 5 days (fraction); higher = more cells survive
AT9283 + Dasatinib = compound: O=C(Nc1c[nH]nc1-c1nc2ccc(CN3CCOCC3)cc2[nH]1)NC1CC1 [AT9283] + Cc1nc(Nc2ncc(C(=O)Nc3c(C)cccc3Cl)s2)cc(N2CCN(CCO)CC2)n1 [Dasatinib] (partner 0.075 µM)
How it was run: (§1)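 For relative viability, nuclei counts in treated wells were divided by those in vehicle wells. Lung cancer cell lines had been pin-tool dosed in 1536-well plates the day after seeding and cultured for 5 days, then fixed and stained in one step (final 0.05% Triton X-100, 1% formaldehyde, 1 ug/ml Hoechst) and imaged at 4×. Doses were one drug alone or a fixed anchor-drug dose plus five library-drug doses (not always all listed) in √10 steps, and values are duplicate-plate medians.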

Erlotinib + Trametinib = compound: C#Cc1cccc(Nc2ncnc3cc(OCCOC)c(OCCOC)cc23)c1 [Erlotinib] + CC(=O)Nc1cccc(-n2c(=O)n(C3CC3)c(=O)c3c(Nc4ccc(I)cc4F)n(C)c(=O)c(C)c32)c1 [Trametinib] (partner 0.02 µM)
How it was run: as §1

AT9283 + Palbociclib = compound: O=C(Nc1c[nH]nc1-c1nc2ccc(CN3CCOCC3)cc2[nH]1)NC1CC1 [AT9283] + CC(=O)c1c(C)c2cnc(Nc3ccc(N4CCNCC4)cn3)nc2n(C2CCCC2)c1=O [Palbociclib] (partner 0.5 µM)
How it was run: as §1

AT9283 + Trametinib = compound: O=C(Nc1c[nH]nc1-c1nc2ccc(CN3CCOCC3)cc2[nH]1)NC1CC1 [AT9283] + CC(=O)Nc1cccc(-n2c(=O)n(C3CC3)c(=O)c3c(Nc4ccc(I)cc4F)n(C)c(=O)c(C)c32)c1 [Trametinib] (partner 0.02 µM)
How it was run: as §1

Erlotinib + Lapatinib = compound: C#Cc1cccc(Nc2ncnc3cc(OCCOC)c(OCCOC)cc23)c1 [Erlotinib] + CS(=O)(=O)CCNCc1ccc(-c2ccc3ncnc(Nc4ccc(OCc5cccc(F)c5)c(Cl)c4)c3c2)o1 [Lapatinib] (partner 2 µM)
How it was run: as §1

Row | Cell Line | relative viability (AT9283 + Dasatinib; first compound 0.003 µM) | relative viability (AT9283 + Dasatinib; first compound 0.03 µM) | relative viability (AT9283 + Dasatinib; first compound 0.09487 µM) | relative viability (AT9283 + Dasatinib; first compound 0.3 µM) | relative viability (Erlotinib + Trametinib; first compound 0.02 µM) | relative viability (Erlotinib + Trametinib; first compound 0.2 µM) | relative viability (Erlotinib + Trametinib; first compound 0.6325 µM) | relative viability (Erlotinib + Trametinib; first compound 2 µM) | relative viability (AT9283 + Palbociclib; first compound 0.003 µM) | relative viability (AT9283 + Palbociclib; first compound 0.03 µM) | relative viability (AT9283 + Palbociclib; first compound 0.09487 µM) | relative viability (AT9283 + Palbociclib; first compound 0.3 µM) | relative viability (AT9283 + Trametinib; first compound 0.003 µM) | relative viability (AT9283 + Trametinib; first compound 0.03 µM) | relative viability (AT9283 + Trametinib; first compound 0.09487 µM) | relative viability (AT9283 + Trametinib; first compound 0.3 µM) | relative viability (Erlotinib + Lapatinib; first compound 0.02 µM) | relative viability (Erlotinib + Lapatinib; first compound 0.2 µM) | relative viability (Erlotinib + Lapatinib; first compound 0.6325 µM) | relative viability (Erlotinib + Lapatinib; first compound 2 µM)
1 | NCI-H647 | 0.15 | 0.114 | 0.036 | 0.0661 | 0.653 | 0.367 | 0.556 | 0.422 | 0.395 | 0.363 | 0.126 | 0.131 | 0.46 | 0.47 | 0.138 | 0.173 | 1.24 | 1.11 | 1.09 | 0.942
2 | NCI-H661 | 0.862 | 0.355 | 0.307 | 0.26 | 0.601 | 0.483 | 0.593 | 0.457 | 0.44 | 0.368 | 0.329 | 0.368 | 0.571 | 0.441 | 0.423 | 0.323 | 0.493 | 0.41 |  | 0.473
3 | NCI-H23 | 0.726 | 0.67 | 0.464 | 0.327 | 0.36 | 0.349 | 0.385 | 0.306 | 0.496 | 0.454 | 0.417 | 0.243 | 0.377 | 0.291 | 0.281 | 0.19 | 1.29 | 0.993 | 1.27 | 0.977
4 | NCI-H727 | 0.423 | 0.467 | 0.314 | 0.245 | 0.392 | 0.387 | 0.351 | 0.379 | 0.583 | 0.626 | 0.514 | 0.428 | 0.378 | 0.418 | 0.359 | 0.347 | 0.821 | 0.873 | 0.929 | 0.766
5 | EKVX | 0.501 | 0.413 | 0.241 | 0.195 | 0.367 | 0.2 | 0.191 | 0.162 | 0.387 | 0.368 | 0.274 | 0.179 | 0.361 | 0.345 | 0.32 | 0.191 | 0.206 | 0.178 | 0.192 | 0.186
6 | NCI-H2087 | 0.765 | 0.309 | 0.122 | 0.0986 | 0.219 | 0.185 | 0.19 | 0.138 | 0.218 | 0.234 | 0.117 | 0.121 | 0.176 | 0.096 | 0.124 | 0.107 | 0.996 | 1.15 | 1.16 | 0.921
7 | SK-LU-1 | 0.217 | 0.124 | 0.0747 | 0.0888 | 0.495 |  | 0.566 | 0.434 | 0.416 | 0.373 | 0.279 | 0.283 | 0.508 | 0.424 | 0.288 | 0.279 | 0.974 | 0.933 | 0.995 | 0.869
8 | NCI-H322M | 0.257 | 0.236 | 0.224 | 0.223 | 0.472 | 0.461 | 0.462 | 0.445 | 0.481 | 0.494 | 0.423 | 0.427 | 0.486 | 0.49 | 0.407 | 0.405 | 0.551 | 0.604 | 0.555 | 0.541
9 | HCC-366 | 0.619 | 0.566 | 0.104 | 0.053 | 0.335 | 0.294 | 0.277 | 0.215 | 0.373 | 0.309 | 0.157 | 0.101 | 0.349 | 0.256 | 0.173 | 0.0874 | 1.08 | 1 | 1.33 | 1.09
10 | NCI-H2085 | 0.231 | 0.238 | 0.224 | 0.2 | 0.494 | 0.496 | 0.513 | 0.306 | 0.498 | 0.473 | 0.413 | 0.319 | 0.532 | 0.453 | 0.395 | 0.318 | 0.775 | 0.74 | 0.845 | 
11 | NCI-H1915 | 0.276 | 0.289 | 0.141 | 0.141 | 0.304 | 0.308 | 0.329 | 0.285 | 0.545 | 0.51 | 0.254 | 0.153 | 0.3 | 0.31 | 0.225 | 0.132 | 1.01 | 0.987 |  | 0.992
12 | NCI-H1944 | 0.199 | 0.178 | 0.116 | 0.111 | 0.385 | 0.326 | 0.361 | 0.295 | 0.336 | 0.241 | 0.188 | 0.172 | 0.408 | 0.307 | 0.196 | 0.206 | 0.79 | 0.65 | 1.05 | 0.816
13 | NCI-H1355 | 0.634 | 0.727 | 0.296 | 0.273 | 0.424 | 0.332 | 0.326 | 0.302 | 0.395 | 0.404 | 0.376 | 0.152 | 0.446 | 0.427 | 0.354 | 0.179 | 1.03 | 0.98 | 1.06 | 0.998
14 | HCC-827 | 0.271 | 0.266 | 0.26 | 0.205 | 0.205 | 0.159 | 0.148 | 0.169 | 0.478 | 0.428 | 0.272 | 0.174 | 0.492 | 0.437 | 0.257 | 0.204 | 0.239 | 0.163 | 0.201 | 0.171
15 | RERF-LC-KJ | 0.864 | 0.391 | 0.212 | 0.188 | 0.913 | 0.774 | 0.799 | 0.613 | 1.17 | 0.77 | 0.475 | 0.302 | 0.877 | 0.691 | 0.412 | 0.251 | 0.857 | 0.864 | 0.936 | 0.734
16 | NCI-H2228 | 0.491 | 0.503 | 0.307 | 0.0747 | 0.436 | 0.708 | 0.49 | 0.381 | 0.588 | 0.492 | 0.351 | 0.149 | 0.422 | 0.518 | 0.239 | 0.207 | 0.946 | 1.31 | 1.31 | 0.891
17 | LK-2 | 0.228 | 0.197 | 0.135 | 0.142 | 0.867 | 0.543 | 0.842 | 0.586 | 0.527 | 0.145 | 0.133 | 0.115 | 0.746 | 0.759 | 0.195 | 0.194 | 0.971 | 0.875 | 1.17 | 0.844
18 | NCI-H520 | 0.2 | 0.174 | 0.147 | 0.145 | 0.689 | 0.666 | 0.744 | 0.687 | 0.238 | 0.2 | 0.142 | 0.127 | 0.719 | 0.276 | 0.291 | 0.149 | 0.825 | 0.759 | 0.913 | 
19 | HOP-62 | 0.666 | 0.58 | 0.295 | 0.186 | 0.35 | 0.364 | 0.452 | 0.36 | 0.468 | 0.405 | 0.188 | 0.197 | 0.384 | 0.431 | 0.194 | 0.188 | 1.08 | 1.09 | 0.94 | 1.04
20 | PC-14 | 0.221 | 0.146 | 0.0272 | 0.016 | 0.185 | 0.0801 | 0.107 | 0.0898 | 0.526 | 0.273 | 0.105 | 0.0809 | 0.827 | 0.459 | 0.131 | 0.0923 | 0.276 | 0.289 | 0.307 | 0.279
21 | UMC-11 | 0.453 | 0.128 | 0.139 | 0.154 | 0.738 | 0.637 | 0.916 | 0.71 | 0.327 | 0.235 | 0.243 | 0.186 | 0.679 | 0.134 | 0.126 | 0.164 | 1.04 | 0.952 | 1.11 | 0.919
22 | NCI-H2405 | 0.177 | 0.185 | 0.132 | 0.107 | 0.543 | 0.574 | 0.613 | 0.55 | 0.519 | 0.407 | 0.284 | 0.196 | 0.737 | 0.491 | 0.296 | 0.185 | 1.1 | 1.11 | 1.14 | 0.976
23 | HARA | 0.27 | 0.235 | 0.0621 | 0.0732 | 0.709 | 0.39 | 0.406 | 0.291 | 0.265 | 0.23 | 0.135 | 0.141 | 0.691 | 0.203 | 0.118 | 0.151 | 0.857 | 0.902 | 0.976 | 0.688
24 | NCI-H1437 | 0.342 | 0.379 | 0.224 | 0.114 | 0.534 | 0.322 | 0.373 | 0.371 | 0.319 | 0.354 | 0.206 | 0.193 | 0.547 | 0.568 | 0.302 | 0.14 | 0.788 | 0.812 | 1 | 0.726
25 | COR-L23 | 0.503 | 0.207 | 0.0898 | 0.101 | 0.67 | 0.636 | 0.617 | 0.545 | 0.286 | 0.141 | 0.11 | 0.121 | 0.668 | 0.245 | 0.166 | 0.161 | 0.944 | 0.979 | 1.16 | 0.96
26 | NCI-H1395 | 0.434 | 0.424 | 0.292 | 0.287 | 1.1 | 0.993 | 1.02 | 0.989 | 0.597 | 0.598 | 0.397 | 0.305 | 1.07 | 0.865 | 0.444 | 0.341 |  | 1.11 | 1.02 | 0.961
27 | NCI-H1650 | 0.347 | 0.301 | 0.216 | 0.171 | 0.477 | 0.443 | 0.561 | 0.382 | 0.38 | 0.404 | 0.242 | 0.237 | 0.604 | 0.545 | 0.399 | 0.179 | 0.705 | 0.728 | 0.899 | 0.828
